What was measured:
Format in all cases: binding
FecB R141S = FecB R141S (Mycobacterium tuberculosis, UniProt O53291, R141S)
FecB Y270S = FecB Y270S (Mycobacterium tuberculosis, UniProt O53291, Y270S)
FecB D332S = FecB D332S (Mycobacterium tuberculosis, UniProt O53291, D332S)
FecB Q336S = FecB Q336S (Mycobacterium tuberculosis, UniProt O53291, Q336S)
FecB E272S = FecB E272S (Mycobacterium tuberculosis, UniProt O53291, E272S)
FecB R240S = FecB R240S (Mycobacterium tuberculosis, UniProt O53291, R240S)
FecB Q233S = FecB Q233S (Mycobacterium tuberculosis, UniProt O53291, Q233S)
FecB L163R = FecB L163R (Mycobacterium tuberculosis, UniProt O53291, L163R)

ferric-carboxymycobactin [Fe-cMB] showed a Kd (FecB R141S) of 1130 nM, a Kd (FecB Y270S) of 940 nM and a Kd (FecB D332S) of 990 nM. For the same substance, the Kd (FecB Q336S) was 1400 nM, the Kd (FecB E272S) was 1730 nM and the Kd (FecB R240S) was 1100 nM. For the same substance, the Kd (FecB Q233S) was 1050 nM and the Kd (FecB L163R) was 1160 nM.
